Counter-ions that a name gives are not always drawn. Like-named read-outs stand apart in the source and are kept apart here.

For this test, the target named is T1, PARP14 MD2 (Homo sapiens, UniProt Q460N5).
T1 sequence (Q460N5 1003-1190 limits assumed): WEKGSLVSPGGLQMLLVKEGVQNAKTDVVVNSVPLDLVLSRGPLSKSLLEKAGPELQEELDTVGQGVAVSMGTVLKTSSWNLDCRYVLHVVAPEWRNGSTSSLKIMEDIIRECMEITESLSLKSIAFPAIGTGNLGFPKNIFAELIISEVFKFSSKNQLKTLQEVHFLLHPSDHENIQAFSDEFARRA
The test is described as follows: AlphaScreen competitive binding assay, displacement of ADP-ribose peptide from PARP14 MD2. The arrangement: PARP14 MD2 (second MD of PARP14). The text has this: Compounds were profiled for binding activity with PARP14 MD2 through a competitive (AlphaScreen™) binding assay measuring the displacement of ADP-ribose peptide from PARP14 MD2.[11a]

Setting [1] is: text and figures, read-out: PARP14 MD2 IC50.
The mark [2] stands for this setting: Table 1, AlphaScreen, PARP14 MD2, read-out: IC50.
Where [3] appears, read: Table 2, AlphaScreen, PARP14 MD2, read-out: IC50.

Turning to `CC(=O)Nc1cccnc1-c1cccc2c1[nH]c1ccccc12` [compound 16, N-[2-(9H-Carbazol-1-yl)pyridin-3-yl]acetamide], the half-maximal inhibitory concentration (IC50) under setting [1] is over 50 µM. For the molecule `CCS(=O)(=O)Nc1ccccc1-c1cccc2c1[nH]c1ccccc12` [compound 62, N-(2-(9H-carbazol-1-yl)phenyl)ethanesulfonamide], the IC50 under setting [2] turned out to be 1.2 ± 0.03 µM.

As for `CC(=O)Nc1ccccc1-c1cccc2c3ccccc3n(C)c12` [compound 24, N-[2-(9-Methyl-9H-carbazol-1-yl)phenyl]acetamide], the half-inhibitory concentration (IC50) under setting [1] is over 50 µM. For the molecule `CCCC(=O)Nc1ccccc1-c1cccc2c1[nH]c1ccccc12` [compound 67, N-(2-(9H-carbazol-1-yl)phenyl)butyramide], the IC50 under setting [2] was 0.9 ± 0.04 µM. Regarding `CC(=O)Nc1ccccc1-c1cn2c3ccccc3c3cccc(c1=O)c32` [compound 20, N-[2-(4-Oxo-4H-pyrido[3,2,1-jk]carbazol-5-yl)phenyl]acetamide], under setting [1], the IC50 is over 50 µM. Take `O=C(Cc1cccc(C(F)(F)F)c1)Nc1ccccc1-c1cccc2c1[nH]c1ccccc12` [compound 106, N-(2-(9H-Carbazol-1-yl)phenyl)-2-(3-(trifluoromethyl)phenyl)acetamide]: under setting [3], the concentration for half-maximal inhibition (IC50) was found to be 7.1 ± 0.7 µM. As to `O=C(Nc1ccccc1-c1cccc2c1[nH]c1ccccc12)c1ccco1` [compound 76, N-(2-(9H-carbazol-1-yl)phenyl)furan-2-carboxamide], under setting [2], the IC50 is over 50 µM. For the molecule `COCCS(=O)(=O)Nc1ccccc1-c1cccc2c1[nH]c1ccccc12` [compound 69, N-(2-(9H-Carbazol-1-yl)phenyl)-2-methoxyethane-1-sulfonamide], under setting [2], the IC50 amounted to 8.6 ± 0.4 µM. In the case of `O=S(=O)(Cc1ccccc1)Nc1ccccc1-c1cccc2c1[nH]c1ccccc12` [compound 79, N-(2-(9H-Carbazol-1-yl)phenyl)-1-phenylmethanesulfonamide], the IC50 under setting [2] is 3.6 ± 0.3 µM. On to `O=C(Cc1ccc(F)cc1)Nc1ccccc1-c1cccc2c1[nH]c1ccccc12` [compound 93, N-(2-(9H-Carbazol-1-yl)phenyl)-2-(4-fluorophenyl)acetamide], for which the IC50 under setting [3] is over 50 µM.

In the case of `CC(=O)Nc1ccccc1-c1cccc2c1[nH]c1c(Cl)c(Cl)ccc12` [compound 37, N-[2-(7,8-Dichloro-9H-carbazol-1-yl)phenyl]acetamide], under setting [1], the IC50 was 1.4 µM.

In the case of `CC(=O)Nc1ccccc1-c1cccc2c3c([nH]c12)CCCC3` [compound 44, N-[2-(5,6,7,8-Tetrahydro-9H-carbazol-1-yl)phenyl]acetamide], the IC50 under setting [1] came out at 1.1 µM. Same read-out and setting: to `CC(=O)Nc1ccccc1-c1cccc2c1C(=O)c1ccccc1-2` [compound 28, N-[2-(9-Oxo-9H-fluoren-1-yl)phenyl]acetamide] belongs over 50 µM.

As for `Cc1ccc(C)c(CC(=O)Nc2ccccc2-c2cccc3c2[nH]c2ccccc23)c1` [compound 101, N-(2-(9H-Carbazol-1-yl)phenyl)-2-(2,5-dimethylphenyl)acetamide], the IC50 under setting [3] came out at 44.6 ± 10.4 µM. As to `Cc1oncc1S(=O)(=O)Nc1ccccc1-c1cccc2c1[nH]c1ccccc12` [compound 70, N-(2-(9H-Carbazol-1-yl)phenyl)-5-methylisoxazole-4-sulfonamide], the IC50 under setting [2] is over 50 µM. Same read-out and setting: to `COc1cccc(C(=O)Nc2ccccc2-c2cccc3c2[nH]c2ccccc23)c1` [compound 81, N-(2-(9H-Carbazol-1-yl)phenyl)-3-methoxybenzamide] belongs 12.7 ± 1.5 µM.

As to `N#Cc1cc(CC(=O)Nc2ccccc2-c2cccc3c2[nH]c2ccccc23)ccn1` [compound 86, N-(2-(9H-Carbazol-1-yl)phenyl)-2-(2-cyanopyridin-4-yl)acetamide], under setting [3], the IC50 was 2.4 ± 0.2 µM. With `O=C(Cc1ccccc1)Nc1ccccc1-c1cccc2c1[nH]c1ccccc12` [compound 78, N-(2-(9H-Carbazol-1-yl)phenyl)-2-phenylacetamide], the IC50 under setting [2] was determined as 7.6 ± 0.3 µM. As to `O=C(Cc1ccc2c(c1)OCO2)Nc1ccccc1-c1cccc2c1[nH]c1ccccc12` [compound 99, N-(2-(9H-Carbazol-1-yl)phenyl)-2-(benzo[d][1,3]dioxol-5-yl)acetamide], the IC50 under setting [3] was 6.9 ± 0.6 µM. Take `O=C(Nc1ccccc1-c1cccc2c1[nH]c1ccccc12)c1ccccc1` [compound 77, N-(2-(9H-carbazol-1-yl)phenyl)benzamide]: under setting [2], the IC50 worked out at 1.9 ± 0.07 µM. Regarding `O=C(Cc1ccccc1Cl)Nc1ccccc1-c1cccc2c1[nH]c1ccccc12` [compound 91, N-(2-(9H-Carbazol-1-yl)phenyl)-2-(2-chlorophenyl)acetamide], the IC50 under setting [3] worked out at 4.4 ± 0.3 µM. Consider `CC(=O)Nc1ccccc1-c1cccc2c3c([nH]c12)CCNC3` [compound 47, N-[2-(2,3,4,5-Tetrahydro-1H-pyrido[4,3-b]indol-6-yl)phenyl]acetamide hydrochloride], for which the “inhibition of PARP14 MD2 (in words)” value was “inactive”.

For the molecule `CCCCS(=O)(=O)Nc1ccccc1-c1cccc2c1[nH]c1ccccc12` [compound 64, N-(2-(9H-Carbazol-1-yl)phenyl)butane-1-sulfonamide], the IC50 under setting [2] was 3.3 ± 0.1 µM. With `CC(=S)Nc1ccccc1-c1cccc2c1[nH]c1ccccc12` [compound 52, N-[2-(9H-Carbazol-1-yl)phenyl]thioacetamide], the IC50 under setting [2] amounted to 10.5 ± 0.4 µM. Regarding `O=C(Cc1ccc(=O)[nH]c1)Nc1ccccc1-c1cccc2c1[nH]c1ccccc12` [compound 88, N-(2-(9H-Carbazol-1-yl)phenyl)-2-(6-oxo-1,6-dihydropyridin-3-yl)acetamide], the IC50 under setting [3] worked out at 6.6 ± 0.4 µM. With `CC(=O)Nc1ccccc1-c1cccc2c(=O)c3ccccc3[nH]c12` [compound 33, N-[2-(9-Oxo-9,10-dihydroacridin-4-yl)phenyl]acetamid], the “inhibition of PARP14 MD2 (in words)” value is “inactive”. As to `CC(=O)Nc1ccccc1-c1cccc2c1oc1ccccc12` [compound 26, N-[2-(Dibenzofuran-4-yl)phenyl]acetamide], under setting [1], the IC50 is over 50 µM.

Turning to `CN(C)S(=O)(=O)Nc1ccccc1-c1cccc2c1[nH]c1ccccc12` [compound 71, N1-(2-(9H-Carbazol-1-yl)phenyl)-N2,N2-dimethylsulfamide], the IC50 under setting [2] was 2.5 ± 0.1 µM. `O=S(=O)(Cc1ccccc1F)Nc1ccccc1-c1cccc2c1[nH]c1ccccc12` [compound 89, N-(2-(9H-Carbazol-1-yl)phenyl)-1-(2-fluorophenyl)methanesulfonamide]: the IC50 under setting [3] was determined as 2.4 ± 0.1 µM. With `CC(=O)Nc1ccccc1-c1cccc2c1C(O)c1ccccc1-2` (stereo not shown) [compound 29, N-[2-(9-Hydroxy-9H-fluoren-1-yl)phenyl]acetamide], under setting [1], the IC50 is over 50 µM. For `CC(=O)Nc1ccncc1-c1cccc2c1[nH]c1ccccc12` [compound 15], under setting [1], the IC50 was over 50 µM. For the molecule `CC(=O)Nc1cnccc1-c1cccc2c1[nH]c1ccccc12` [compound 17], under setting [2], the IC50 is over 50 µM. Regarding `O=C(Nc1ccccc1-c1cccc2c1[nH]c1ccccc12)C(F)(F)F` [compound 73, N-(2-(9H-carbazol-1-yl)phenyl)-2,2,2-trifluoroacetamide], the IC50 under setting [2] was determined as 1.1 ± 0.07 µM. Still for that read-out and setting: to `O=C(Nc1ccccc1-c1cccc2c1[nH]c1ccccc12)C1CC1` [compound 74, N-(2-(9H-carbazol-1-yl)phenyl)cyclopropanecarboxamide] belongs 1.2 ± 0.03 µM. For the molecule `N#Cc1ccc(CS(=O)(=O)Nc2ccccc2-c2cccc3c2[nH]c2ccccc23)cc1` [compound 95, N-(2-(9H-Carbazol-1-yl)phenyl)-1-(4-cyanophenyl)methanesulfonamide], under setting [3], the half-inhibitory concentration (IC50) was 6.2 ± 0.6 µM. On the same count and under the same terms, next, `O=C(Cc1ccccc1F)Nc1ccccc1-c1cccc2c1[nH]c1ccccc12` [compound 90, N-(2-(9H-Carbazol-1-yl)phenyl)-2-(2-fluorophenyl)acetamide]: 2.8 ± 0.2 µM. As to `Cc1ccc(-c2cccc3c2[nH]c2ccccc23)c(NS(C)(=O)=O)c1` [compound 55, N-(2-(9H-Carbazol-1-yl)-5-methylphenyl)methanesulfonamide], under setting [2], the IC50 was 1.1 ± 0.1 µM.

As for `CCCS(=O)(=O)Nc1ccccc1-c1cccc2c1[nH]c1ccccc12` [compound 63, N-(2-(9H-Carbazol-1-yl)phenyl)propane-1-sulfonamide], the 50% inhibitory concentration (IC50) under setting [2] turned out to be 2.9 ± 0.1 µM. On to `COc1ccc2[nH]c3c(-c4ccccc4NC(C)=O)cccc3c2c1` [compound 39, N-[2-(6-Methoxy-9H-carbazol-1-yl)phenyl]acetamide], for which the “inhibition of PARP14 MD2 (in words)” value is “inactive”.

For `O=S(=O)(Nc1ccccc1-c1cccc2c1[nH]c1ccccc12)c1ccccc1` [compound 72, N-(2-(9H-Carbazol-1-yl)phenyl)benzenesulfonamide], the IC50 under setting [2] was over 50 µM.

Regarding `CC(=O)Nc1ccccc1-c1cccc2c1[nH]c1ccc(Cl)cc12` [compound 38, N-[2-(6-Chloro-9H-carbazol-1-yl)phenyl]acetamide], the IC50 under setting [1] was 3 µM. Take `Cc1ccc(-c2cccc3c2[nH]c2ccccc23)c(N)c1` [compound 59, 2-(9H-Carbazol-1-yl)-5-methylaniline]: the half-maximal inhibitory concentration (IC50) under setting [2] was over 50 µM.

Consider `CS(=O)(=O)Nc1ccc(C(F)(F)F)cc1-c1cccc2c1[nH]c1ccccc12` [compound 58, N-(2-(9H-Carbazol-1-yl)-4-(trifluoromethyl)phenyl)methanesulfonamide], for which, under setting [2], the IC50 was over 50 µM. `N#Cc1ccc(CC(=O)Nc2ccccc2-c2cccc3c2[nH]c2ccccc23)cn1` [compound 87, N-(2-(9H-Carbazol-1-yl)phenyl)-2-(6-cyanopyridin-3-yl)acetamide]: under setting [3], the IC50 stood at 3.5 ± 0.2 µM. In the case of `CCCCC(=O)Nc1ccccc1-c1cccc2c1[nH]c1ccccc12` [compound 68, N-(2-(9H-carbazol-1-yl)phenyl)pentanamide], the IC50 under setting [2] is over 50 µM.

As to `CC(=O)Nc1ccccc1-c1ccccc1Nc1ccccc1` [compound 31, N-[2'-(Phenylamino)-(1,1'-biphenyl)-2-yl]acetamide], the “inhibition of PARP14 MD2 (in words)” value was “completely inactive”.

The record behind these values is paper PMC6008491, “Discovery of a novel allosteric inhibitor scaffold for polyadenosine-diphosphate-ribose polymerase 14 (PARP14) macrodomain 2” (Bioorganic & Medicinal Chemistry, 2018).
